pIC50: −log10 of the molar value.
Tests used:
[1] = system: Jurkat cells; assay: Cell viability (MTS); format: cell-based; details: 48 hours
Protocol: (§1) Cells were cultured in RPMI-1640 containing 10% FBS (Jurkat and THP-1) or DMEM containing 10% FBS (A549 and MDA-MB-435). On Day 1, 1-5×10^4 cells per well in 100 μL of the cell culture medium containing 0.5% FBS were seeded into a 96-well flat bottom plate. On Day 2, the test compounds were added to the culture at different concentrations in triplicates. The controls include triplicates of no compound treatment and cell culture medium without cells. The cells were incubated at 5% CO2, 37° C. for 48 hours. On Day 4, MTS reagent was added to each well and incubated at 37° C. for 4 hours. The absorbance was read at 490 nm. The percentage of inhibition was calculated using the formula: [1-(experiment reading-background reading)/(negative control reading-background reading)]×100.

[2] = system: MDA-MB-435 cells; assay: Cell viability (MTS); format: cell-based; details: 48 hours
Protocol: as §1

[3] = system: THP1 cells; assay: Cell viability (MTS); format: cell-based; details: 48 hours
Protocol: as §1

[4] = target: T1, recombinant human PDE4B1 enzyme (Homo sapiens, UniProt Q07343); assay: PDE4B1 radiometric enzyme assay; format: biochemical; details: 1 μM cAMP
T1 construct: host or cells: baculoviral system
Protocol: Assays were performed using recombinant human PDE4B1 enzyme expressed in a baculoviral system. […] The reactions were performed at 1 μM of cAMP. The test articles were each tested at 0.2 μM and 20 μM in triplicates.

[5] = system: Jurkat cells; assay: Cell proliferation ([3H]-thymidine); format: cell-based; details: 48 hours, read-out: Anti-proliferation IC50, Jurkat
Protocol: (§2) Cells were cultured in RPMI-1640 containing 10% FBS (Jurkat) or DMEM containing 10% FBS (MDA-MB-435). On Day 1, 1×10^4 cells were seeded into one well of a 96-well white ISOPLATE™ with 0.5% FBS. The cells were cultured at 5% CO2, 37° C. overnight. On Day 2, the diluted test compounds were added into each well in a total volume of 100 μL of cell culture medium. For each cell line were set up three wells containing cells and only diluted DMSO as a negative (vehicle) control, and three wells without cells but containing the same volume and type of cell culture medium as background control. The cells were incubated at 5% CO2, 37° C. for 24 hours. On Day 3, 1 μL of [^3H]-thymidine was added into each well and incubation at 5% CO2, 37° C. was continued for another 24 hours. On Day 4, 30 μL of 50% TCA was added into each well and was incubated at 4° C. for 4 hours. Plates were washed with ddH2O four times and then air dried for 30 minutes followed by the addition of 100 μL of scintillation fluid into each well. The radioactivity was read using MICROBETA TRILUX™. The percentage of inhibition was calculated using the formula [1-(experiment reading-background reading)/(negative control reading-background reading)]×100.

[6] = system: MDA-MB-435 cells; assay: Cell proliferation ([3H]-thymidine); format: cell-based; details: 48 hours, read-out: Anti-proliferation IC50, MDA-MB-435
Protocol: as §2

T1 sequence (Q07343 whole entry): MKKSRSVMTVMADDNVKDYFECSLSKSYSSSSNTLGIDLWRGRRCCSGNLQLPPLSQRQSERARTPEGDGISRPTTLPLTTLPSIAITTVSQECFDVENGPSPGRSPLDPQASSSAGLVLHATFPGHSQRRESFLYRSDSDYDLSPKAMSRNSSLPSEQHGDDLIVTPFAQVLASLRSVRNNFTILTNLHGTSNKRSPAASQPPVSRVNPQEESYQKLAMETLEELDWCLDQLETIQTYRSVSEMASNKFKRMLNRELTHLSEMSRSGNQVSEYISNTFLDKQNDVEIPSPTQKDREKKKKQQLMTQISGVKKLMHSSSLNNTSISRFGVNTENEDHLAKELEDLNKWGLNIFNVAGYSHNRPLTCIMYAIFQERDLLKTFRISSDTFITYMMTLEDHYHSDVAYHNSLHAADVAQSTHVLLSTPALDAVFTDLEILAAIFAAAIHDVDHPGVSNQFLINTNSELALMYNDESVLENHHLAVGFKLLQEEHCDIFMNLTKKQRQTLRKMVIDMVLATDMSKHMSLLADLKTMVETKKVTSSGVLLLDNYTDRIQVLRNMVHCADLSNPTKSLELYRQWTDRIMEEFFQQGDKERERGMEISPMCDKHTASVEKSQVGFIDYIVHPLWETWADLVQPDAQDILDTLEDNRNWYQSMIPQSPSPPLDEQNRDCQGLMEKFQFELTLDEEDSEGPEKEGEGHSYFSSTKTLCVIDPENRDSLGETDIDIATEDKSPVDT

pIC50 [1]	pIC50 [2]	pIC50 [3]	Inhibitory activity on PDE4B1 enzyme ([4]; 0.2 μM compound)	pIC50 [5]	pIC50 [6]	Compound	Inhibitory activity on PDE4B1 enzyme ([4]; 20 μM compound)
5.53	5.76	5.61				Oc1cc(/C=C/c2c(F)cccc2F)ccc1C1CCCC1 [Compound 22]	
5.58	6.41	5.14				Oc1cc(/C=C/c2ccc(F)cc2)ccc1C1CCCCC1 [Compound 24]	
			+ (“+” is 15-30% inhibition)			Oc1cc(/C=C/c2ccc(F)cc2)ccc1C1CCCCCC1 [Compound 27]	+++ (“+++” is greater than 50% inhibition)

Further lines, the compound ahead of its results:

Compound	pIC50 [1]	pIC50 [2]	pIC50 [3]	Inhibitory activity on PDE4B1 enzyme ([4]; 0.2 μM compound)	pIC50 [5]	pIC50 [6]	Inhibitory activity on PDE4B1 enzyme ([4]; 20 μM compound)
N#Cc1ccc(/C=C/c2ccc(C3CC3)c(O)c2)cc1C#N [Compound 18]	5.48	5.90	5.62				
Oc1cc(/C=C/c2ccc(F)cc2)ccc1C1CCCC1 [Compound 20]				+ (“+” is 15-30% inhibition)			+++ (“+++” is greater than 50% inhibition)
Oc1cc(/C=C/c2ccc(F)cc2F)ccc1C1CCCC1 [Compound 21]	5.43	5.71	5.16		6.16	5.75	
